In PubChem BioAssay AID248 (DTP/NCI, 2004):
Several values for one entry are separate records, joined by “and”; a condition that tells them apart may be missing. Equal entries are not always repeated. Toxic doses and inconclusive results are not listed. No stated cut-off is given here; in the data, active means T/C of 150% or more; inactive means T/C below 125%.

Tested on: L1210 leukemia ip in BDF1 mice, survival T/C
Assay: NCI In Vivo Anticancer Drug Screen. Data for tumor model L1210 Leukemia (intraperitoneal) in B6D2F1 (BDF1) mice
Conditions: endpoint: mean survival time, higher = longer survival
Method in brief: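 Antitumor effect is assessed in tumor-bearing animals. Survival in the compound arm is compared with a vehicle-dosed control arm and expressed as their quotient.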

[1] = dose: 50.0 mg/kg/injection, schedule: Q01DX009 (ip), vehicle: saline with Tween-80
[2] = dose: 100.0 mg/kg/injection, schedule: Q01DX009 (ip), vehicle: saline with Tween-80
[3] = dose: 200.0 mg/kg/injection, schedule: Q01DX009 (ip), vehicle: saline with Tween-80
[4] = dose: 100.0 mg/kg/injection, schedule: Q04DX003 (ip), vehicle: saline with Tween-80
[5] = dose: 200.0 mg/kg/injection, schedule: Q04DX003 (ip), vehicle: saline with Tween-80
[6] = dose: 100.0 mg/kg/injection, schedule: Q04DX003 (ip), vehicle: Klucel (hydroxypropylcellulose) (HPC)
[7] = dose: 200.0 mg/kg/injection, schedule: Q04DX003 (ip), vehicle: Klucel (hydroxypropylcellulose) (HPC)
[8] = dose: 400.0 mg/kg/injection, schedule: Q04DX003 (ip), vehicle: Klucel (hydroxypropylcellulose) (HPC)
[9] = dose: 400.0 mg/kg/injection, schedule: Q01DX009 (ip), vehicle: saline with Tween-80
[10] = dose: 400.0 mg/kg/injection, schedule: Q04DX003 (ip), vehicle: saline with Tween-80
[11] = dose: 100.0 mg/kg/injection, schedule: Q01DX009 (ip), vehicle: Klucel (hydroxypropylcellulose) (HPC)
[12] = dose: 200.0 mg/kg/injection, schedule: Q01DX009 (ip), vehicle: Klucel (hydroxypropylcellulose) (HPC)
[13] = dose: 400.0 mg/kg/injection, schedule: Q01DX009 (ip), vehicle: Klucel (hydroxypropylcellulose) (HPC)
[14] = dose: 100.0 mg/kg/injection, schedule: Q01DX001 (ip), vehicle: saline
[15] = dose: 200.0 mg/kg/injection, schedule: Q01DX001 (ip), vehicle: saline
[16] = dose: 400.0 mg/kg/injection, schedule: Q01DX001 (ip), vehicle: saline
[17] = dose: 100.0 mg/kg/injection, schedule: Q04DX002 (ip), vehicle: Klucel (hydroxypropylcellulose) (HPC)
[18] = dose: 200.0 mg/kg/injection, schedule: Q04DX002 (ip), vehicle: Klucel (hydroxypropylcellulose) (HPC)
[19] = dose: 400.0 mg/kg/injection, schedule: Q04DX002 (ip), vehicle: Klucel (hydroxypropylcellulose) (HPC)
[20] = dose: 25.0 mg/kg/injection, schedule: Q01DX009 (ip), vehicle: saline
[21] = dose: 25.0 mg/kg/injection, schedule: Q04DX003 (ip), vehicle: saline
[22] = dose: 50.0 mg/kg/injection, schedule: Q01DX009 (ip), vehicle: saline

Measured: T/C

COc1ccc2c(c1)C(=O)CCC2(C)C
inactive: [1] 100 % of control | [2] 86 % of control | [3] 105 % of control

COc1ccc(C(C)N=CC(C)(C)C)cc1 (centres undefined)
inactive: [4] 101 % of control | [5] 101 % of control

CCCCP(=S)(CCCC)C1CCCC1
inactive: [6] 104 % of control | [7] 107 % of control | [8] 101 % of control

CCCCCCC(=O)CCCCCCCCCCCCC(=O)OC
inactive: [9] 88 % of control

NC(Cc1ccc(OCc2ccccc2)cc1)C(=O)O (centres undefined)
inactive: dose: 100.0 mg/kg/injection, schedule: Q01DX001 (ip), vehicle: saline with Tween-80 92 % of control | [2] 95 % of control | dose: 200.0 mg/kg/injection, schedule: Q01DX001 (ip), vehicle: saline with Tween-80 89 % of control | [3] 90 % of control | dose: 400.0 mg/kg/injection, schedule: Q01DX001 (ip), vehicle: saline with Tween-80 89 % of control | [9] 96 % of control

CCCOC(=O)COc1ccccc1
inactive: [4] 96 % of control | [5] 96 % of control | [10] 93 % of control

O=C1C2CC3C=CC1C(C3)C2 (centres undefined) (tested in a mixture with another compound)
inactive: dose: 100.0 mg/kg/injection, schedule: Q01DX001 (ip), vehicle: Klucel (hydroxypropylcellulose) (HPC) 104 % of control | dose: 200.0 mg/kg/injection, schedule: Q01DX001 (ip), vehicle: Klucel (hydroxypropylcellulose) (HPC) 103 % of control | dose: 400.0 mg/kg/injection, schedule: Q01DX001 (ip), vehicle: Klucel (hydroxypropylcellulose) (HPC) 97 % of control

CN(C)C(=O)CNc1ccc(S(=O)(=O)c2ccc(Cl)cc2)cc1
inactive: [4] 101 % of control | [5] 101 % of control | [10] 95 % of control

COC(=N)c1ccc(O)cc1
inactive: dose: 100.0 mg/kg/injection, schedule: Q04DX002 (ip), vehicle: saline with Tween-80 94 % of control | dose: 200.0 mg/kg/injection, schedule: Q04DX002 (ip), vehicle: saline with Tween-80 98 % of control

CC(=O)C(Br)CC(C)C (centres undefined)
inactive: dose: 75.0 mg/kg/injection, schedule: Q01DX001 (ip), vehicle: saline 102 % of control | dose: 150.0 mg/kg/injection, schedule: Q01DX001 (ip), vehicle: saline 105 % of control | dose: 300.0 mg/kg/injection, schedule: Q01DX001 (ip), vehicle: saline 100 % of control

NC(=O)c1ccccc1NC(=O)Nc1ccccc1C(F)(F)F
inactive: [11] 98 % of control | [12] 98 % of control | [13] 100 % of control

CCCCNC(=S)NCCCN(C)C
inactive: [6] 101 % of control | [7] 98 % of control

Cc1ccc(-c2ccc(C)s2)s1
inactive: dose: 50.0 mg/kg/injection, schedule: Q01DX009 (ip), vehicle: acetone 95 % of control | dose: 100.0 mg/kg/injection, schedule: Q01DX009 (ip), vehicle: acetone 90 % of control | dose: 100.0 mg/kg/injection, schedule: Q04DX003 (ip), vehicle: saline 96 % of control | dose: 200.0 mg/kg/injection, schedule: Q01DX009 (ip), vehicle: acetone 90 % of control | dose: 200.0 mg/kg/injection, schedule: Q04DX003 (ip), vehicle: saline 93 % of control | dose: 400.0 mg/kg/injection, schedule: Q04DX003 (ip), vehicle: saline 100 % of control

Brc1ccc(N=C2NN=CC2(c2ccccc2)c2ccccc2)cc1
inactive: dose: 100.0 mg/kg/injection, schedule: Q01DX001 (ip), vehicle: carboxymethylcellulose (CMC) 94 % of control | dose: 200.0 mg/kg/injection, schedule: Q01DX001 (ip), vehicle: carboxymethylcellulose (CMC) 88 % of control | dose: 400.0 mg/kg/injection, schedule: Q01DX001 (ip), vehicle: carboxymethylcellulose (CMC) 88 % of control

CC(C)NC1(C(N)=O)CCN(Cc2ccccc2)CC1
inactive: dose: 50.0 mg/kg/injection, schedule: Q01DX009 (ip), vehicle: Klucel (hydroxypropylcellulose) (HPC) 95 % of control | dose: 50.0 mg/kg/injection, schedule: Q04DX003 (ip), vehicle: Klucel (hydroxypropylcellulose) (HPC) 98 % of control | [11] 100 % of control | [6] 93 % of control | [12] 104 % of control | [7] 95 % of control

Cc1c(CBr)c(=O)[nH]c2ccccc12
inactive: [14] 100 % of control | [15] 98 % of control

c1ccc2c(c1)CCc1cc3c(nc1-2)-c1ccccc1CC3
inactive: [11] 97 % of control | [6] 100 % of control | [12] 98 % of control | [7] 100 % of control | [13] 95 % of control | [8] 94 % of control

NS(=O)(=O)c1ccc(NC(=O)c2ccc(C(=O)Nc3ccc(S(N)(=O)=O)cc3)cc2)cc1
inactive: [14] 100 % of control | [15] 100 % of control | [16] 100 % of control

Cc1cnc(NC#N)nc1-c1ccccc1O
inactive: [17] 95 % of control | [18] 98 % of control | [19] 95 % of control

CC(C)=CCC/C(C)=C\CCl
inactive: dose: 25.0 mg/kg/injection, schedule: Q01DX009 (ip), vehicle: saline with Tween-80 93 % of control | [1] 106 % of control | [2] 97 % of control and 101 % of control | [4] 104 % of control | [5] 93 % of control | [10] 90 % of control

Cc1cccc(C)c1OC(=O)Nc1ccccc1Cl
inactive: [17] 95 % of control | [18] 106 % of control | [19] 103 % of control

Cc1ccc(S(=O)(=O)OC2CCN(C)CC2)cc1
inactive: dose: 6.0 mg/kg/injection, schedule: Q01DX009 (ip), vehicle: saline 91 % of control | dose: 12.0 mg/kg/injection, schedule: Q01DX009 (ip), vehicle: saline 93 % of control | dose: 12.0 mg/kg/injection, schedule: Q04DX003 (ip), vehicle: saline 102 % of control | dose: 25.0 mg/kg/injection, schedule: Q01DX005 (ip), vehicle: saline 97 % of control | [20] 93 % of control and 94 % of control | [21] 96 % of control | dose: 50.0 mg/kg/injection, schedule: Q01DX005 (ip), vehicle: saline 97 % of control | [22] 96 % of control | dose: 100.0 mg/kg/injection, schedule: Q01DX005 (ip), vehicle: saline 97 % of control and 99 % of control | dose: 100.0 mg/kg/injection, schedule: Q01DX009 (ip), vehicle: saline 112 % of control

Cc1cn(C2OC(CO)C(O)C(O)C2O)c(=O)[nH]c1=O (centres undefined)
inactive: [14] 97 % of control | [15] 97 % of control | [16] 94 % of control

COC(=O)c1c(C)n(C)c2c1c1c(O)c3c(O)c(C)c4c(c32)C(=O)C(C)(O/C=C/C(OC)C(C)C(OC(C)=O)C(C)C(O)C(C)C(O)C(C)/C=C\C=C(C)C(=O)N1)O4 (centres undefined)
inactive: dose: 50.0 mg/kg/injection, schedule: Q04DX003 (ip), vehicle: water 104 % of control | dose: 100.0 mg/kg/injection, schedule: Q04DX003 (ip), vehicle: water 100 % of control | dose: 200.0 mg/kg/injection, schedule: Q04DX003 (ip), vehicle: water 98 % of control | dose: 400.0 mg/kg/injection, schedule: Q04DX003 (ip), vehicle: water 98 % of control

CSc1ccc(NC(=O)Nc2ccccc2C(F)(F)F)cc1
inactive: dose: 100.0 mg/kg/injection, schedule: Q01DX009 (ip), vehicle: other 96 % of control | dose: 200.0 mg/kg/injection, schedule: Q01DX009 (ip), vehicle: other 96 % of control | dose: 400.0 mg/kg/injection, schedule: Q01DX009 (ip), vehicle: other 95 % of control

CCCCNC(C)(C)CO
inactive: dose: 12.5 mg/kg/injection, schedule: Q01DX009 (ip), vehicle: saline 106 % of control | dose: 12.5 mg/kg/injection, schedule: Q04DX003 (ip), vehicle: saline 100 % of control | [20] 112 % of control | [21] 97 % of control | [22] 109 % of control | dose: 50.0 mg/kg/injection, schedule: Q04DX003 (ip), vehicle: saline 102 % of control | dose: 75.0 mg/kg/injection, schedule: Q01DX009 (ip), vehicle: saline 105 % of control
